This note sets out measurements from patent publication US20240000942A1, “Craniofacial implant made of polyether ether ketone (PEEK) with deposits to store and release active substances or active Ingredient” (Arcosystem SPA, priority 2022, published 2024).

The data set is described as follows: Stability of the vancomycin solution within the implant reservoir (HPLC). Type of data set: physicochemical. The method, then: For this, a time zero (To) sample corresponding to a sample that was immediately analyzed after its reconstitution was analyzed, along with a sample that was left to rest for 24 hours within the implant. In this way, results from the 24 hour time frame were compared with those of time zero as sample areas and degradation percentage at 24 hours.
Shaking up to the complete solution of the lyophilized powder, taking 0.5 mL of said ampule, and diluted with physiological saline solution up to 5 mL of final volume. This 5 mL of solution is injected in the reservoir of the implant. […] Said 0.5 mL were diluted up to 5 mL of final volume using 0.2M potassium dibasic phosphate buffer adjusted to pH 7.4. Then, using a syringe, said volume was loaded in the reservoir or capsule of the implant, the implant was then sealed and incorporated in an empty beaker. Nominal concentration of the solution within the reservoir is […].
After 24 hours, the chamber or reservoir was opened to extract the 0.5 mL of the solution contained within. Of said 0.5 mL extracted from the reservoir, a 0.1 mL aliquot is taken that then is transferred to a 100 mL flask for its analysis using HPLC, considering the same calibration and standard curves that were described for the previous example.

“And” between values parts separate entries of the source, which are not always exact repeats. Equal values may be shown once. “Also recorded” adds a separate entry of the source.

Consider `CN[C@H](CC(C)C)C(=O)N[C@H]1C(=O)N[C@@H](CC(N)=O)C(=O)N[C@H]2C(=O)N[C@H]3C(=O)N[C@H](C(=O)N[C@H](C(=O)O)c4cc(O)cc(O)c4-c4cc3ccc4O)[C@H](O)c3ccc(c(Cl)c3)Oc3cc2cc(c3O[C@@H]2O[C@H](CO)[C@@H](O)[C@H](O)[C@H]2O[C@H]2C[C@](C)(N)[C@H](O)[C@H](C)O2)Oc2ccc(cc2Cl)[C@H]1O` [vancomycin], for which the HPLC sample area was 94679 and 94744 (24 hour period within the implant); 94711.5 (24 hour period within the implant, mean); 948050 and 948671 (Time 0 (analyzed immediately after reconstitution)); 948360.5 (Time 0 (analyzed immediately after reconstitution), mean). Where the note is “24 hours”, the “degradation of vancomycin within the implant (in words)” value was “not significant; also recorded: no indication of significative degradation”.
